# Molecular target: Calcium-activated potassium channel subunit alpha-1 (Homo sapiens) (UniProt Q12791)
# Test: Channel opening activity at human BKalpha channel expressed in CHOK1 cells assessed as ionic current amplitude at 30 uM at holding potential of -90 mV by population patch clamp technique relative to untreated control
# Type: cell-based
# Conditions: CHO-K1
# Chain of Calcium-activated potassium channel subunit alpha-1 (Homo sapiens) (Q12791 whole entry): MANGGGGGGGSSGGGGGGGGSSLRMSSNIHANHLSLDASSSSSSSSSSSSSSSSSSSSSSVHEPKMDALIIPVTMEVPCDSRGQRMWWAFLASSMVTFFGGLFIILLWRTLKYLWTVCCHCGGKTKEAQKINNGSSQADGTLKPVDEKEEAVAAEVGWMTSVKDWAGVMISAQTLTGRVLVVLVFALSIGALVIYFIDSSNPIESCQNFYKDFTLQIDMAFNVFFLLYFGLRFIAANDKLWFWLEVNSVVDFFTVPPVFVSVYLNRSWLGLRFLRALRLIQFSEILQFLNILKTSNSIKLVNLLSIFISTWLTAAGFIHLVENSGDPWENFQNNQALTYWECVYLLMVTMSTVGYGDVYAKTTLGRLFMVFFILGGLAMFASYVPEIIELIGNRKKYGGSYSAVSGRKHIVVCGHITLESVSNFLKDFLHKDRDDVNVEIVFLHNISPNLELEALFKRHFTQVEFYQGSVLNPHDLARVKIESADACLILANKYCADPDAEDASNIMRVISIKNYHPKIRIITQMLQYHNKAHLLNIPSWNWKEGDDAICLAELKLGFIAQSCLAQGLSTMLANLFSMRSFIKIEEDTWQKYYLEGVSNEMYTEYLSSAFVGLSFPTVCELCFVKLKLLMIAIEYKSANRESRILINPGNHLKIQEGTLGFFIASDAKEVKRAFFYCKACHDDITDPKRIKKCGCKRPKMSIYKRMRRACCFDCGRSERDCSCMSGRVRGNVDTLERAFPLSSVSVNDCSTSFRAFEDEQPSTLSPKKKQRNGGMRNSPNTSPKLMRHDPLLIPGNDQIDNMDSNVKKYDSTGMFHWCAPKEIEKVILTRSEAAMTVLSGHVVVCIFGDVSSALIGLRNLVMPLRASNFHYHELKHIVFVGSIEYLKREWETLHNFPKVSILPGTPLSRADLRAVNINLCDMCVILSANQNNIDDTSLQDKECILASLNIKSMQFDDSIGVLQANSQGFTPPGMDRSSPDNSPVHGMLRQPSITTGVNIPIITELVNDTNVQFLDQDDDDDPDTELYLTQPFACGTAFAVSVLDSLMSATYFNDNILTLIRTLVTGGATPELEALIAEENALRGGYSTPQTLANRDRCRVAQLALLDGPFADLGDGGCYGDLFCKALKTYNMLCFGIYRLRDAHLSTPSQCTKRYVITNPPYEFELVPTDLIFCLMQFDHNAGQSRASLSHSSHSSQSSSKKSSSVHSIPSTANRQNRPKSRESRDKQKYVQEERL
row,SMILES,Activity [%]
1,CCC(=O)Nc1cc2c(cc1C(C)C)CC[C@H]1[C@](C)(C(=O)O)CCC[C@]21C,90.2
2,CC(C)c1cc2c(cc1OCCCc1ccccc1)[C@@]1(C)CCC[C@@](C)(C(=O)O)[C@@H]1CC2,93.2
3,CCCC(=O)Nc1cc2c(cc1C(C)C)CC[C@H]1[C@](C)(C(=O)O)CCC[C@]21C,92.4
4,CCCCCCCCCCCC(=O)Nc1cc2c(cc1C(C)C)CC[C@H]1[C@](C)(C(=O)O)CCC[C@]21C,103
5,CC(C)c1cc2c(cc1OCc1ccccc1)[C@@]1(C)CCC[C@@](C)(C(=O)O)[C@@H]1CC2,89.5
6,CC(C)c1cc2c(cc1OCc1ccc(Cl)cc1)[C@@]1(C)CCC[C@@](C)(C(=O)O)[C@@H]1CC2,91.6
7,CC(C)c1cc2c(cc1NC(=S)Nc1cc(C(F)(F)F)cc(C(F)(F)F)c1)[C@@]1(C)CCC[C@@](C)(C(=O)O)[C@@H]1CC2,240
8,CC(C)c1cc2c(cc1NC(=O)CN1CCCCC1)[C@@]1(C)CCC[C@@](C)(C(=O)O)[C@@H]1CC2,107
9,CC(C)c1c(N)cc2c(c1N)CC[C@H]1[C@](C)(C(=O)O)CCC[C@]21C,110
10,CC(C)c1cc2c(cc1NC(=O)c1cc(C(F)(F)F)cc(C(F)(F)F)c1)[C@@]1(C)CCC[C@@](C)(C(=O)O)[C@@H]1CC2,81.8
11,CCCCCCCCCOc1cc2c(cc1C(C)C)CC[C@H]1[C@](C)(C(=O)O)CCC[C@]21C,81.8
12,COc1ccc(C(=O)Nc2cc3c(cc2C(C)C)CC[C@H]2[C@](C)(C(=O)O)CCC[C@]32C)cc1,94.1
13,CCCCCCOc1cc2c(cc1C(C)C)CC[C@H]1[C@](C)(C(=O)O)CCC[C@]21C,78.7
14,CC(C)c1ccc2c(c1N)CC[C@H]1[C@](C)(C(=O)O)CCC[C@]21C,88.2
15,CC(C)c1cc2c(cc1NC(=O)C1CCCCC1)[C@@]1(C)CCC[C@@](C)(C(=O)O)[C@@H]1CC2,95.9
16,CC(C)c1cc2c(cc1NC(=O)Cc1ccccc1)[C@@]1(C)CCC[C@@](C)(C(=O)O)[C@@H]1CC2,90.9
17,CC(C)c1cc2c(cc1NC(=O)Nc1cc(C(F)(F)F)cc(C(F)(F)F)c1)[C@@]1(C)CCC[C@@](C)(C(=O)O)[C@@H]1CC2,132
18,CC(C)c1cc2c(cc1NC(=O)c1ccc(C(F)(F)F)cc1)[C@@]1(C)CCC[C@@](C)(C(=O)O)[C@@H]1CC2,128
19,CCCOc1cc2c(cc1C(C)C)CC[C@H]1[C@](C)(C(=O)O)CCC[C@]21C,118
20,CC(C)c1cc2c(cc1O)[C@@]1(C)CCC[C@@](C)(C(=O)O)[C@@H]1CC2,83
21,CC(C)c1c(Cl)cc2c(c1Cl)CC[C@H]1[C@](C)(C(=O)O)CCC[C@]21C,180
22,CC(C)c1c([N+](=O)[O-])cc2c(c1[N+](=O)[O-])CC[C@H]1[C@](C)(C(=O)O)CCC[C@]21C,200
23,CC(C)c1cc2c(cc1NC(=O)c1ccccc1C(F)(F)F)[C@@]1(C)CCC[C@@](C)(C(=O)O)[C@@H]1CC2,59.4
24,CC(C)C(=O)Nc1cc2c(cc1C(C)C)CC[C@H]1[C@](C)(C(=O)O)CCC[C@]21C,130
25,COc1cc2c(cc1C(C)C)CC[C@H]1[C@](C)(C(=O)O)CCC[C@]21C,85.9
26,CC(C)c1cc2c(cc1NC(=O)C1CC1)[C@@]1(C)CCC[C@@](C)(C(=O)O)[C@@H]1CC2,91.6
27,CC(C)c1cc2c(cc1N)[C@@]1(C)CCC[C@@](C)(C(=O)O)[C@@H]1CC2,88.9
28,CC(C)c1cc2c(cc1OCc1ccc3ccccc3c1)[C@@]1(C)CCC[C@@](C)(C(=O)O)[C@@H]1CC2,83.7
29,CC(C)Oc1cc2c(cc1C(C)C)CC[C@H]1[C@](C)(C(=O)O)CCC[C@]21C,125

# Now from value to compound:
row,Activity [%],SMILES
1,139,CC(C)c1cc2c(cc1NC(=O)Nc1ccc(F)c(F)c1)[C@@]1(C)CCC[C@@](C)(C(=O)O)[C@@H]1CC2
2,94.4,COc1ccc(Cl)cc1NC(=O)Nc1cc2c(cc1C(C)C)CC[C@H]1[C@](C)(C(=O)O)CCC[C@]21C
3,128,CC(C)c1cc2c(cc1NC(=O)Nc1cc(C(F)(F)F)ccc1Cl)[C@@]1(C)CCC[C@@](C)(C(=O)O)[C@@H]1CC2
4,72.7,CC(C)c1cc2c(cc1NC(=O)Nc1ccccc1)[C@@]1(C)CCC[C@@](C)(C(=O)O)[C@@H]1CC2
5,114,CC(C)c1cc2c(cc1NC(=O)Nc1ccccc1C(F)(F)F)[C@@]1(C)CCC[C@@](C)(C(=O)O)[C@@H]1CC2
6,168,CC(C)c1cc2c(cc1NC(=O)Nc1ccc(Cl)c(C(F)(F)F)c1)[C@@]1(C)CCC[C@@](C)(C(=O)O)[C@@H]1CC2
7,83.4,CC(C)c1cc2c(cc1NC(=O)c1ccc(F)cc1)[C@@]1(C)CCC[C@@](C)(C(=O)O)[C@@H]1CC2
8,86.5,COc1ccccc1C(=O)Nc1cc2c(cc1C(C)C)CC[C@H]1[C@](C)(C(=O)O)CCC[C@]21C
9,89.9,CCNC(=O)Nc1cc2c(cc1C(C)C)CC[C@H]1[C@](C)(C(=O)O)CCC[C@]21C
10,156,CC(C)c1cc2c(cc1NC(=O)Nc1ccc(F)c(Cl)c1)[C@@]1(C)CCC[C@@](C)(C(=O)O)[C@@H]1CC2
11,92.5,CC(C)c1cc2c(cc1NC(=O)c1cccc(C(F)(F)F)c1)[C@@]1(C)CCC[C@@](C)(C(=O)O)[C@@H]1CC2
12,96.1,CC(=O)Nc1cc2c(cc1C(C)C)CC[C@H]1[C@](C)(C(=O)O)CCC[C@]21C
13,151,CC(C)c1cc2c(cc1NC(=O)Nc1cc(Cl)cc(Cl)c1)[C@@]1(C)CCC[C@@](C)(C(=O)O)[C@@H]1CC2
14,108,CC(C)c1cc2c(cc1NC(=O)c1ccc(Cl)cc1)[C@@]1(C)CCC[C@@](C)(C(=O)O)[C@@H]1CC2
15,138,CC(C)c1cc2c(cc1NC(=O)Nc1ccc(C(F)(F)F)cc1)[C@@]1(C)CCC[C@@](C)(C(=O)O)[C@@H]1CC2
16,90,CC(C)c1cc2c(cc1NC(=O)c1ccccc1)[C@@]1(C)CCC[C@@](C)(C(=O)O)[C@@H]1CC2
17,143,CC(C)c1cc2c(cc1NC(=S)Nc1cccc(C(F)(F)F)c1)[C@@]1(C)CCC[C@@](C)(C(=O)O)[C@@H]1CC2
18,99.9,CC(C)c1cc2c(cc1NC(=O)Nc1cccc(C(F)(F)F)c1)[C@@]1(C)CCC[C@@](C)(C(=O)O)[C@@H]1CC2
19,136,CC(C)c1cc2c(cc1NC(=O)Nc1cccc(Cl)c1)[C@@]1(C)CCC[C@@](C)(C(=O)O)[C@@H]1CC2
20,107,COc1ccc(NC(=O)Nc2cc3c(cc2C(C)C)CC[C@H]2[C@](C)(C(=O)O)CCC[C@]32C)cc1

# Source: ChEMBL document CHEMBL1141715, “Novel BK channel openers containing dehydroabietic acid skeleton: structure-activity relationship for peripheral substituents on ring C” (Bioorg Med Chem Lett, 2008)
